Where two headings read alike, the source gives them in different places.
How the values were obtained:
[1] = system: KCHSC: kochia (Kochia scoparia); experiment: Post-emergent Test III, herbicidal activity in wheat and barley; type: in vivo; conditions: for pest or weed control at 35 g/ha / pest or weed control at 70 g/ha: Bassia scoparia, post-emergence, 504 h, read-out: Visual Growth Reduction (%) 21 Days After Application KCHSC; for pest or weed control at 35 g/ha: 35 g ai/ha; for pest or weed control at 70 g/ha: 70 g ai/ha; for GR50 KCHSC / GR80 KCHSC: probit analysis
Procedure, shortened: (§1)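 GR20, GR50, GR80 and GR90 come from probit analysis of visual injury scores (0 = none, 100 = complete kill) taken 21 d after treatment. Foliar application was by track sprayer delivering 187 L/ha at five rates, from high down to 1/16×, onto greenhouse plants at the 2–3 leaf stage, with solvent-blank controls.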

[2] = system: MATSS: scented mayweed (Matricaria chamomilla), pineappleweed (Matricaria matricarioides); experiment: as above; type: in vivo
Procedure, shortened: as §1

[3] = system: APESV: bentgrass (Apera spica-venti); experiment: as above; type: in vivo; conditions: for pest or weed control at 35 g/ha / pest or weed control at 70 g/ha: Apera spica-venti, post-emergence, 504 h, read-out: Visual Growth Reduction (%) 21 Days After Application APESV; for pest or weed control at 35 g/ha: 35 g ai/ha; for pest or weed control at 70 g/ha: 70 g ai/ha; for GR50 APESV / GR80 APESV: probit analysis
Procedure, shortened: as §1

[4] = as above; type: in vivo, Lolium multiflorum, Lolium rigidum; conditions: Lolium multiflorum, post-emergence, 504 h, read-out: Visual Growth Reduction (%) 21 Days After Application LOLSS; for pest or weed control at 35 g/ha: 35 g ai/ha; for pest or weed control at 70 g/ha: 70 g ai/ha
Procedure, shortened: as §1

[5] = system: ALOMY: black-grass (Alopecurus myosuroides); experiment: as above; type: in vivo
Procedure, shortened: as §1

[6] = system: LAMSS; experiment: as above; type: in vivo
Procedure, shortened: as §1

[7] = system: LOLSS: ryegrass including, Italian ryegrass (Lolium multiflorum), rigid ryegrass (Lolium rigidum), annual ryegrass (Lolium multiflorum subsp. Gaudini); experiment: as above; type: in vivo; conditions: probit analysis
Procedure, shortened: as §1

[8] = system: TRZSS: wheat, including spring and winter (Triticum aestivum); experiment: Post-emergent Test III, herbicidal activity in wheat and barley; type: in vivo; conditions: Table 9, 21 d; for GR20 TRZSS: dose for 20 percent growth reduction, probit analysis; for pest or weed control at 35 g/ha / pest or weed control at 70 g/ha: Triticum aestivum, post-emergence, 504 h, post-emergent, read-out: Visual Growth Reduction (%) 21 Days After Application TRZSS; for pest or weed control at 35 g/ha: 35 g ai/ha; for pest or weed control at 70 g/ha: 70 g ai/ha
Procedure, shortened: as §1

[9] = system: HORSS: barley, including spring and winter (Hordeum vulgare); experiment: as above; type: in vivo; conditions: Table 9, 21 d; for pest or weed control at 35 g/ha / pest or weed control at 70 g/ha: Hordeum vulgare, post-emergence, 504 h, post-emergent, read-out: Visual Growth Reduction (%) 21 Days After Application HORSS; for pest or weed control at 35 g/ha: 35 g ai/ha; for pest or weed control at 70 g/ha: 70 g ai/ha; for GR20 HORSS: dose for 20 percent growth reduction, probit analysis
Procedure, shortened: as §1

[10] = system: SETVI: green foxtail (Setaria viridis); experiment: as above; type: in vivo; conditions: Table 9, 21 d; for pest or weed control at 35 g/ha / pest or weed control at 70 g/ha: Setaria viridis, post-emergence, 504 h, post-emergent, read-out: Visual Growth Reduction (%) 21 Days After Application SETVI; for pest or weed control at 35 g/ha: 35 g ai/ha; for pest or weed control at 70 g/ha: 70 g ai/ha; for GR50 SETVI: dose for 50 percent growth reduction; for GR50 SETVI / GR80 SETVI: probit analysis; for GR80 SETVI: dose for 80 percent growth reduction
Procedure, shortened: as §1

[11] = dose for growth reduction of 50 percent, 21 days after application
[12] = dose for growth reduction of 80 percent, 21 days after application
[13] = probit analysis, dose for growth reduction of 50 percent, 21 days after application
[14] = probit analysis, dose for growth reduction of 80 percent, 21 days after application
[15] = Table 9, dose for 50 percent growth reduction, 21 d
[16] = Table 9, dose for 80 percent growth reduction, 21 d

## COC(=O)c1nc(-c2ccc(Br)c(F)c2F)c(F)c(N)c1Cl [Compound 109, methyl 4-amino-6-(4-bromo-2,3-difluorophenyl)-3-chloro-5-fluoropicolinate]
[1]
  pest or weed control at 35 g/ha: 85 to 94%
  pest or weed control at 70 g/ha: 85 to 94%
[1]; [11]
  GR50 KCHSC: 3 g ai/ha
[1]; [12]
  GR80 KCHSC: 19 g ai/ha
[2]; Matricaria chamomilla, post-emergence, 504 h, 35 g ai/ha, read-out: Visual Growth Reduction (%) 21 Days After Application MATSS
  pest or weed control at 35 g/ha: 30 to 44%
[2]; Matricaria chamomilla, post-emergence, 504 h, 70 g ai/ha, read-out: Visual Growth Reduction (%) 21 Days After Application MATSS
  pest or weed control at 70 g/ha: 45 to 59%
[2]; [13]
  GR50 MATSS: 72 g ai/ha
[2]; [14]
  GR80 MATSS: >140 g ai/ha
[3]
  pest or weed control at 35 g/ha: 85 to 94%
  pest or weed control at 70 g/ha: 85 to 94%
[3]; [11]
  GR50 APESV: 1 g ai/ha
[3]; [12]
  GR80 APESV: 6 g ai/ha
[4]
  pest or weed control at 35 g/ha: 45 to 59%
  pest or weed control at 70 g/ha: 45 to 59%
[5]; Alopecurus myosuroides, post-emergence, 504 h, 35 g ai/ha, read-out: Visual Growth Reduction (%) 21 Days After Application ALOMY
  pest or weed control at 35 g/ha: 60 to 74%
[5]; Alopecurus myosuroides, post-emergence, 504 h, 70 g ai/ha, read-out: Visual Growth Reduction (%) 21 Days After Application ALOMY
  pest or weed control at 70 g/ha: 75 to 84%
[5]; [13]
  GR50 ALOMY: 22 g ai/ha
[5]; [14]
  GR80 ALOMY: 88 g ai/ha
[6]; post-emergence, 504 h, 35 g ai/ha, read-out: Visual Growth Reduction (%) 21 Days After Application LAMSS
  pest or weed control at 35 g/ha: 95 to 100%
[6]; post-emergence, 504 h, 70 g ai/ha, read-out: Visual Growth Reduction (%) 21 Days After Application LAMSS
  pest or weed control at 70 g/ha: 95 to 100%
[6]; [13]
  GR50 LAMSS: 1 g ai/ha
[6]; [14]
  GR80 LAMSS: 1 g ai/ha
[7]; [11]
  GR50 LOLSS: 34 g ai/ha
[7]; [12]
  GR80 LOLSS: >140 g ai/ha

## COC(=O)c1nc(-c2ccc(I)cc2F)cc(N)c1Cl [Compound 159]
other
  melting point: 139.8 to 141.2 °C
[1]; Table 9, post-emergent, 21 d
  pest or weed control at 35 g/ha: 85 to 94%
  pest or weed control at 70 g/ha: 95 to 100%
[1]; [15]
  GR50 KCHSC: 4 g ai/ha
[1]; [16]
  GR80 KCHSC: 19 g ai/ha
[8]
  GR20 TRZSS: 1 g ai/ha
  pest or weed control at 35 g/ha: 85 to 94%
  pest or weed control at 70 g/ha: 95 to 100%
[3]; Table 9, post-emergent, 21 d
  pest or weed control at 35 g/ha: 85 to 94%
  pest or weed control at 70 g/ha: 95 to 100%
[3]; [15]
  GR50 APESV: 11 g ai/ha
[3]; [16]
  GR80 APESV: 25 g ai/ha
[9]
  pest or weed control at 35 g/ha: 85 to 94%
  pest or weed control at 70 g/ha: 95 to 100%
  GR20 HORSS: 1 g ai/ha
[4]; Table 9, post-emergent, 21 d
  pest or weed control at 35 g/ha: 45 to 59%
  pest or weed control at 70 g/ha: 60 to 74%
[10]
  pest or weed control at 35 g/ha: 45 to 59%
  pest or weed control at 70 g/ha: 60 to 74%
  GR50 SETVI: 43 g ai/ha
  GR80 SETVI: 113 g ai/ha
[7]; [15]
  GR50 LOLSS: 36 g ai/ha
[7]; [16]
  GR80 LOLSS: 89 g ai/ha

## Cc1c(-c2ccc(C(F)(F)F)c(F)c2)nc(C(=O)O)c(Cl)c1N [Compound 161, 4-amino-3-chloro-6-(3-fluoro-4-(trifluoromethyl)phenyl)-5-methylpicolinic acid]
other
  melting point: 170 to 171.5 °C
[1]; Table 9, post-emergent, 21 d
  pest or weed control at 35 g/ha: 0 to 29%
  pest or weed control at 70 g/ha: 0 to 29%
[1]; [15]
  GR50 KCHSC: >140 g ai/ha
[1]; [16]
  GR80 KCHSC: >140 g ai/ha
[8]
  GR20 TRZSS: 1 g ai/ha
  pest or weed control at 35 g/ha: 75 to 84%
  pest or weed control at 70 g/ha: 75 to 84%
[3]; Table 9, post-emergent, 21 d
  pest or weed control at 35 g/ha: 60 to 74%
  pest or weed control at 70 g/ha: 75 to 84%
[3]; [15]
  GR50 APESV: 30 g ai/ha
[3]; [16]
  GR80 APESV: 57 g ai/ha
[9]
  pest or weed control at 35 g/ha: 85 to 94%
  pest or weed control at 70 g/ha: 85 to 94%
  GR20 HORSS: 1 g ai/ha
[4]; Table 9, post-emergent, 21 d
  pest or weed control at 35 g/ha: 0 to 29%
  pest or weed control at 70 g/ha: 0 to 29%
[10]
  pest or weed control at 35 g/ha: 30 to 44%
  pest or weed control at 70 g/ha: 60 to 74%
  GR50 SETVI: 53 g ai/ha
  GR80 SETVI: 128 g ai/ha
[7]; [15]
  GR50 LOLSS: 38 g ai/ha
[7]; [16]
  GR80 LOLSS: 82 g ai/ha

## Nc1c(Cl)c(C(=O)O)nc(-c2ccc(I)cc2)c1Cl [Compound 173]
other
  melting point: 188.7 to 190.3 °C
[1]; Table 9, post-emergent, 21 d
  pest or weed control at 35 g/ha: 30 to 44%
  pest or weed control at 70 g/ha: 45 to 59%
[1]; [15]
  GR50 KCHSC: 60 g ai/ha
[1]; [16]
  GR80 KCHSC: 131 g ai/ha
[8]
  GR20 TRZSS: 1 g ai/ha
  pest or weed control at 35 g/ha: 75 to 84%
  pest or weed control at 70 g/ha: 85 to 94%
[3]; Table 9, post-emergent, 21 d
  pest or weed control at 35 g/ha: 60 to 74%
  pest or weed control at 70 g/ha: 75 to 84%
[3]; [15]
  GR50 APESV: 27 g ai/ha
[3]; [16]
  GR80 APESV: 59 g ai/ha
[9]
  pest or weed control at 35 g/ha: 85 to 94%
  pest or weed control at 70 g/ha: 95 to 100%
  GR20 HORSS: 1 g ai/ha
[4]; Table 9, post-emergent, 21 d
  pest or weed control at 35 g/ha: 30 to 44%
  pest or weed control at 70 g/ha: 45 to 59%
[10]
  pest or weed control at 35 g/ha: 30 to 44%
  pest or weed control at 70 g/ha: 45 to 59%
  GR50 SETVI: 54 g ai/ha
  GR80 SETVI: 104 g ai/ha
[7]; [15]
  GR50 LOLSS: 119 g ai/ha
[7]; [16]
  GR80 LOLSS: >140 g ai/ha
